{"source": "patent EP2181589A1", "about": "“Neurotoxic sterol glycosides” (Shaw, Christopher Ariel, priority 2008, dated 2010)", "key": {"[1]": {"system": "Cholinergic motor neurons in the spinal cord", "assay": "Choline acetyl transferase immunofluorescence", "type": "in vivo, CD-1 mice", "details": "SG-fed vs control; for Cholinergic neurons: ventral horn of lumbar spinal cord", "method": "(§1) The synthetic SG was mixed with finely ground Purina Chow mouse pellets (Mouse Diet™, Purina) to create the experimental pellets with a SG content of 1000 µg per pellet. Dry materials were blended with a sterile silicon spatula. For every 5 g of standard feed, 2.5 mL of doubly-distilled water (dd)H2O was added and the dough was kneaded and round up into pellets. A single sterol glucoside containing pellet was placed in the feeding tray each morning before the addition of regular mouse chow (ad libitum). All experimental pellets were entirely consumed by the mice each day. Control mice were fed standard mouse chow pellets of identical weight with no additives. SG feeding was conducted daily for 15 weeks and mice were behaviorally monitored until sacrifice at 35 weeks (time point 1) or 52 weeks (time point 2).\nTissue-mounted slides were processed for fluorescence microscopy as follows: Sections were rinsed in coplin jars for 45 minutes at room temperature (RT) in three changes of PBS. Sections were then incubated at RT for 30 minutes in a blocking permeabilization solution made of 5% normal goat serum (NGS), 5% normal rabbit serum (NRS) or 5% BlokHen II (Aves Labs, Inc., Tigard, OR), 0.05% Triton X-100 and PBS. Subsequently, the blocking solution was tipped off and the slides were rinsed in PBS for 2 minutes. […]"}, "[2]": {"system": "Motor Neurons per lumbar cord section", "assay": "Motor neuron counts, cresyl violet (Nissl) histology", "type": "in vivo, CD-1 mice", "method": "as §1\nMice were sacrificed for histological analysis at 35 weeks (35.9-48.6 g) and 52 weeks (41.2-51.4 g) of age. Age-matched control mice from each time point were included for comparison. The mice were deeply anaesthetized in a chamber with 4% isoflurane and perfused intracardially with filtered PBS (pH 7.4) until the effluent was cleared of blood (2 minutes), followed by perfusion with cold (4°C) 4% paraformaldehyde (PFA) in 0.1 M phosphate buffer (pH 7.4) for 5 minutes (30 mL). The PBS and the PFA were delivered through separate sterile platinum-cured silicon tubing (Cole-Parmer Canada Inc., Montreal, Canada) and peristaltic pumps (MasterFlex peristaltic pump, Cole-Parmer Canada Inc., Montreal, Canada). The brains and spinal cords were dissected out and fixed overnight at 4°C and equilibrated in increasing concentrations of sucrose in phosphate-buffered saline, pH 7.4 (10, 20, and 25%) over a 3-day period. Complete equilibration of the tissues was taken as the moment the tissues sank to the bottom of the scintillation tubes filled with 25% sucrose. After equilibration, the spinal cord and brain specimens were set in molds (Tissue-tek Cryomold, Sakura Finetek, USA, Torrance, CA) with an optimum cutting temperature (OCT) gel-sucrose mixture frozen by immersion in an isopentane (BDH Laboratory Supplies, UK) bath on dry ice and stored at -80°C until processing.\nCryosectioning of tissue: Frozen, coronal sections (spinal cord: 20 µm, brain: 30 µm) were cut with a Hacker-Bright cryostat (Hacker Instruments and Industries Inc., Winnsboro, SC) and mounted on charged glass slides (Superfrost Plus; Fisher Scientific, Pittsburgh, PA) so that adjacent CNS sections on each slide represented regions 100 µm and 150 µm apart for spinal cord and brain, respectively ((Tabata, Wilson et al. 2008)). The slides were stored at -80°C until histological processing. To ensure CNS sections were matched between animals, anatomical landmarks were verified using a mouse brain atlas (Paxinos and Franklin 2001).\nHistology and quantification of motor neurons: Spinal cord and brain sections from each animal were stained for Nissl body substance. At room temperature (RT), sections were rinsed in a graded ethanol series (95%: 15 min; 70%: 1 min; 50%: 1 min) to rehydrate and remove lipids and fixation chemicals from the tissue. The tissue were then rinsed for 2 min in two exchanges of distilled water, stained with twice-filtered cresyl violet stain (1.25 g cresyl violet acetate, 0.75 mL glacial acetic acid to 250 mL distilled water), rinsed in distilled water (1 minute), and then dehydrated (50% ethanol: 1 minute; 1% glacial acetic acid-70% ethanol: 2 minutes; 95% ethanol: 2 minutes; 95% ethanol: 3 dips; 100% ethanol: 1 minute) and cleared in xylene. The slides were then cover-slipped in Entellen mountant (Merck, Darmstadt, Germany). The tissue mounted slides were selected with a randomized start and sampled starting from the lumbar 2 region to the 6th. […]"}, "[3]": {"details": "SG-fed vs control, time-point 1, 35 wk"}, "[4]": {"details": "SG-fed vs control, time-point 2, 52 wk"}, "[5]": {"details": "SG-group over time, 35 to 52 wk"}}, "note": "Marks after values point to notes of the source that are not given here."}
{"smiles": "CCC(C=CC(C)C1CCC2C3CC=C4CC(OC5OC(CO)C(O)C(O)C5O)CCC4(C)C3CCC12C)C(C)C", "note": "(stereo not drawn) [SG]", "values": [{"measurement": "fewer cholinergic neurons", "setting": "[1]; 35 weeks", "result": 18, "unit": "%"}, {"measurement": "fewer cholinergic neurons", "setting": "[1]; 52 weeks", "result": 32, "unit": "%"}, {"measurement": "Cholinergic neurons", "setting": "[1]; time-point 1, 35 wk", "result": "Cholinergic neurons (-18%)"}, {"measurement": "Cholinergic neurons", "setting": "[1]; time-point 2, 52 wk", "result": "Cholinergic neurons (-32%)"}, {"measurement": "Chromatolytic α-MN", "setting": "[2]; [3]", "result": "Chromatolytic α-MN (ns)"}, {"measurement": "Healthy α-MN", "setting": "[2]; [3]", "result": "Healthy α-MN (ns)"}, {"measurement": "Pyknotic α-MN", "setting": "[2]; [3]", "result": "Pyknotic α-MN (ns)"}, {"measurement": "Total γ-MN", "setting": "[2]; [3]", "result": "Total γ-MN (ns)"}, {"measurement": "Chromatolytic α-MN", "setting": "[2]; [4]", "result": "Chromatolytic α-MN (ns)"}, {"measurement": "Pyknotic α-MN", "setting": "[2]; [4]", "result": "Pyknotic α-MN (ns)"}, {"measurement": "Total γ-MN", "setting": "[2]; [4]", "result": "Total γ-MN (ns)"}, {"measurement": "Total α-MN", "setting": "[2]; SG-fed vs control, time-point 2, 52 wk, table cell prints no unit", "result": "Total α-MN: -47*"}, {"measurement": "Chromatolytic α-MN", "setting": "[2]; [5]", "result": "(control group & SG-group independently over time) (ns)"}, {"measurement": "Pyknotic α-MN", "setting": "[2]; [5]", "result": "(control group and SG-group independently over time) (ns)"}, {"measurement": "Total γ-MN", "setting": "[2]; [5]", "result": "(control group and SG-group independently over time) (ns)"}]}
